Test results as given in publication PMC3832545 (PLoS ONE, 2013).
Marks after values point to notes of the source that are not given here.

How the values were obtained:
MC38 cell allografts = experiment: Growth of MC38 cell tumor allografts in mice with diet-induced obesity; assay type: in vivo, mouse; conditions: 600 nmol/kg sc twice daily; for Tumor end volume, mean / Tumor end volume, fold change relative to vehicle: day 14; for AUC tumor growth, mean / AUC tumor growth, fold change relative to vehicle: day 0 to 14
Experimental: We focused on different endpoints in these animal experiments and monitored tumor growth in all experiments, see Table 1. The animal experiments were performed as described recently. […] Animal care and treatments were conducted in accordance with established guidelines and protocols approved by the Lady Davis Institute (protocol # 5951) and McGill University's Animal Ethics Committee. Mice were housed one mouse per cage with ad libitum access to tap water and high- or low fat diet, respectively, throughout the studies. The temperature in the animal rooms was maintained at 20-25°C with a light/dark cycle of 14/10 hours. Mice were acclimatized for 7-10 days before experimental procedures were initiated. At experimental day 0, 2.0×10^5 (experiment A) or 5.0×10^5 (all other experiments) MC38 cells, suspended in 100 μl phosphate-buffered saline (PBS), were injected subcutaneously (sc) in the right flank of the mice. […] The size of the tumor allografts was measured three times per week and the volume calculated using the following formula: length × width^2 × 0.52. Based on the tumor volume data for each mouse, we calculated the area under the tumor growth curves (tumor growth AUC). At termination of the experiments, mice were anesthetized with isoflurane. Blood was collected by cardiac puncture and immediately after euthanasia by cervical dislocation, samples of the liver, colon, gastrocnemius muscle and the MC38 cell tumor allografts were dissected out and snap-frozen in liquid nitrogen for later preparation of tissue lysate. The effect of treatment on tumor growth in each of the five animal experiments were analysed in a one-way ANOVA followed by pairwise comparison of each treatment with vehicle using multiple t-tests with Dunnetts correction for each of the two tumor growth endpoints; tumor end volume and area under the tumor growth curves (tumor growth AUC). The results of this analysis for each experiment, i.e., mean values for each treatment, 95% confidence intervals and the fold change of each treatment relative to vehicle, are shown in Table 3. To examine treatment-related effects on tumor growth across all five animal experiments, we for each endpoint (tumor end volume and tumor growth AUC) pooled all data in one dataset and analysed them in a mixed linear model with treatment as a fixed explanatory variable and experiment as a random effect. No significant interaction between treatment and experiment was found for the any of the two outcomes (tumor end volume and tumor growth AUC). To further explore the differences between treatments, pairwise comparisons of each type of treatment were done using multiple t-test with Bonferonni correction. No outliers were observed among the 131 observations of tumor end volume, whereas one outlier was identified among the 131 observations of tumor growth AUC.

MC38 cells = experiment: MTT cell proliferation assay, MC38 cells; assay type: cell-based, mouse; conditions: 24 h, 0.25% (v/v) serum, 0.001 to 1000 nM, three independent experiments with four replicates
Experimental: (§1) Effect of test compounds on proliferation was assessed with 3-(4,5-dimethylthiazol-2-yl)-2,5-diphenyl tetrazolium bromide (MTT) assays, essentially as described previously. In brief, MC38 cells were plated in 96-well plates (5,000 cells per well) in growth medium. […] Data for relative cell numbers from the three repeated experiments, each with four replicate samples per condition, were then used to fit dose-response curves using GraphPad Prism version 6.0 (GraphPad Software Inc., La Jolla, CA, USA). Cell proliferation experiments were done with MCF-7 cells as described for MC38 cells, except that 20,000 cells were plated per well. See Materials S1 and Figure S1 for detailed supplementary information regarding cell proliferation experiments.
(§2) In initial tests the association between number of cells and absorbance at 570 nm measured in an MTT assay was examined after incubation of MC38 cells with MTT for 3 h, 3 h after plating different number of cells per well, i.e., the total incubation period was 6 h. As expected there was a highly linear relationship between absolute number of cells and the measured absorbance (Figure S1). […] After incubation for 1 day cells were rinsed in PBS (room temperature) and then starvation medium was added. […] Control samples were treated with starvation medium only. After treatment for 21 h, 10 µl stock solution of MTT dissolved in PBS (5.0 mg/ml) was added to each well, and incubation was continued for 3 h so treatment with test compounds in total lasted 24 h. At the end of the treatment period medium with test compounds was removed and formazan crystals were suspended by adding 100 µl 0.04 M HCl dissolved in isopropanol to each well and absorbance was thereafter read at 570 nm using a Emax PC plate reader (Molecular Devices LLC, Sunnyvale, CA, USA). Each treatment was done with four replicate samples and three independent experiments were performed. In each experiment the absorbance was normalized to the mean absorbance in the untreated control samples. […]

MCF-7 cells = experiment: MTT cell proliferation assay, MCF-7 cells; assay type: cell-based, human; conditions: 24 h, 0.1% (v/v) serum, 0.001 to 1000 nM, three independent experiments with four replicates
Experimental: as §1, §2

[1] = Blood glucose (pharmacodynamics) after sc injection in DIO-mice; assay type: in vivo, mouse; conditions: 600 nmol/kg sc, n = 8
From the text: Blood was collected by puncture of the saphenous vein and blood glucose measured using a OneTouch Ultra Glucometer (LifeScan, Inc., Milpitas, CA, USA).

[2] = all experiments (A–E) pooled, mixed linear model, DIO-mice
[3] = all experiments (A–E) pooled, mixed linear model, one outlier excluded, DIO-mice
[4] = experiment C, n = 6, 5.0×10^5 MC38 cells sc, DIO-mice
[5] = experiment D, n = 8–10, 5.0×10^5 MC38 cells sc, DIO-mice
[6] = experiment A, n = 6, 2.0×10^5 MC38 cells sc, DIO-mice
[7] = experiment A, n = 6, 2.0×10^5 MC38 cells sc, male C57BL/6 DIO-mice
[8] = experiment B, n = 6, 5.0×10^5 MC38 cells sc, DIO-mice
[9] = experiment E, n = 10, 5.0×10^5 MC38 cells sc, DIO-mice

Substance | Tumor end volume, mean (MC38 cell allografts; [2]) [mm^3] | AUC tumor growth, mean (MC38 cell allografts; [3]) [day × mm^3] | AUC tumor growth, mean (MC38 cell allografts; [4]) [day × mm^3] | Tumor end volume, mean (MC38 cell allografts; [4]) [mm^3] | AUC tumor growth, mean (MC38 cell allografts; [5]) [day × mm^3] | Tumor end volume, mean (MC38 cell allografts; [5]) [mm^3] | Ranking according to mitogenic potency (MTT assay) (MC38 cells) | Ranking according to mitogenic potency (MTT assay) (MCF-7 cells) | Effect on blood glucose [1] | Time until blood glucose returned to basal levels [1] [h] | AUC tumor growth, mean (MC38 cell allografts; [6]) [day × mm^3] | Tumor end volume, mean (MC38 cell allografts; [7]) [mm^3] | AUC tumor growth, mean (MC38 cell allografts; [8]) [day × mm^3] | Tumor end volume, mean (MC38 cell allografts; [8]) [mm^3] | AUC tumor growth, mean (MC38 cell allografts; [9]) [day × mm^3] | Tumor end volume, mean (MC38 cell allografts; [9]) [mm^3] | other results
IGF-1: recombinant human IGF-1 (Increlex, IPSEN Pharma GmbH) | 686.3 | 2499.8 | 2596.8 | 724.6 | 2207.1 | 616.0 | X10≥IGF-1>HI | IGF-1>X10>HI | rapidly lowered blood glucose | 3 to 4 | – | – | – | – | – | – | –
insulin analog B10Asp [X10] | 500.5 | 1851.9 | 2060.9 | 646.8 | 1394.4 | 345.8 | X10≥IGF-1>HI | IGF-1>X10>HI | rapidly lowered blood glucose | 3 to 4 | 1880.9 | 500.7 | 2167.5 | 558.4 | 1836.1 | 427.0 | Tumor end volume, fold change relative to vehicle (MC38 cell allografts; [2]): 1.5 ^* fold; AUC tumor growth, fold change relative to vehicle (MC38 cell allografts; [3]): 1.5 ^* fold; AUC tumor growth, fold change relative to vehicle (MC38 cell allografts; [6]): 0.9 fold; Tumor end volume, fold change relative to vehicle (MC38 cell allografts; [6]): 1.0 fold; AUC tumor growth, fold change relative to vehicle (MC38 cell allografts; [8]): 1.8 fold; Tumor end volume, fold change relative to vehicle (MC38 cell allografts; [8]): 1.7 fold; AUC tumor growth, fold change relative to vehicle (MC38 cell allografts; [4]): 1.8 ^* fold; Tumor end volume, fold change relative to vehicle (MC38 cell allografts; [4]): 2.0 ^* fold; AUC tumor growth, fold change relative to vehicle (MC38 cell allografts; [5]): 1.6 fold; Tumor end volume, fold change relative to vehicle (MC38 cell allografts; [5]): 1.9 fold; AUC tumor growth, fold change relative to vehicle (MC38 cell allografts; [9]): 1.4 fold; Tumor end volume, fold change relative to vehicle (MC38 cell allografts; [9]): 1.3 fold
human insulin [HI] | 409.5 | 1542.1 | 1309.5 | 374.5 | 1483.0 | 397.7 | X10≥IGF-1>HI | IGF-1>X10>HI | rapidly lowered blood glucose | 3 to 4 | 1539.6 | 439.3 | 1725.4 | 434.3 | 1421.9 | 365.6 | –
